These results are taken from patent US20120282359A1, “Compositions, Kits, and Methods for the Treatment of Conditions Associated with Elevated Cholesterol Levels” (priority 2003, published 2012).

The experiment has as its system humans having risk factors for atherosclerosis. The experiment in a line: Example 4: double-blinded, randomized comparative study of treating elevated cholesterol levels. The format is in vivo, human. Particulars: at eight weeks, versus baseline. On the procedure:
A comparative study is executed to determine the effects of methods of treating elevated cholesterol levels comprising administration of each of: Test Sample 1, simvastatin (20 mg) in conjunction with fruit juice; Test Sample 2, simvastatin (10 mg) in conjunction with fruit juice; and Test Sample 3, simvastatin (10 mg) in conjunction with psyllium (15 grams) and fruit juice.
The study is a double-blinded, randomized comparison. Sixty humans, aging from about 30 to about 80 years, are utilized for the study, all of which are determined as having risk factors for atherosclerosis. The humans are randomized to three treatment groups (Treatment Group 1, Treatment Group 2, and Treatment Group 3). Each human stops any lipid-lowering treatment, and baseline lipid levels are obtained.
Treatment Group 1 receives Test Sample 1; Treatment Group 2 receives Test Sample 2; and Treatment Group 3 receives Test Sample 3; all over an eight week period. Test Sample 1 is administered as a concurrent administration once daily. Test Sample 2 is administered as a concurrent administration once daily. For Test Sample 3, 15 grams of psyllium is divided over three daily doses, each with fruit juice, wherein the last administered dose per day is concurrently administered with the simvastatin.
At eight weeks, levels of LDL-cholesterol, total cholesterol, and triglycerides are measured. Triglycerides are found not to be influenced based upon treatment group. However, on average, LDL-cholesterol and total cholesterol is decreased by approximately 29% in Treatment Group 1, LDL-cholesterol and total cholesterol is decreased by approximately 33% in Treatment Group 2, and LDL-cholesterol and total cholesterol is decreased by approximately 38% in Treatment Group 3.

As for `CCC(C)(C)C(=O)O[C@H]1C[C@@H](C)C=C2C=C[C@H](C)[C@H](CC[C@@H]3C[C@@H](O)CC(=O)O3)[C@H]21` [Test Sample 1, simvastatin], the “LDL-cholesterol decreased, on average” value was “approximately 29%” and the “total cholesterol decreased, on average” value is given as “approximately 29%”.

Regarding `CCC(C)(C)C(=O)O[C@H]1C[C@@H](C)C=C2C=C[C@H](C)[C@H](CC[C@@H]3C[C@@H](O)CC(=O)O3)[C@H]21` [Test Sample 2, simvastatin], the “LDL-cholesterol decreased, on average” value is “approximately 33%” and the “total cholesterol decreased, on average” value is “approximately 33%”.
